From the NIST ThermoML archive (doi:10.1016/j.jct.2013.05.003)
Numbers after ± are expanded uncertainties.

Key:
[1] = 101.3 kPa, Liquid, Sing-around technique in a fixed-path interferometer
[2] = xn = mol fraction of the nth substance listed; details: 283.15 K; 101.3 kPa; Liquid; fixed-path interferometer; x2 = 0

| speed of sound ([1]; 283.15 K) [m/s] | speed of sound ([1]; 288.15 K) [m/s] | speed of sound ([1]; 293.15 K) [m/s] | speed of sound ([1]; 298.15 K) [m/s] | speed of sound ([1]; 303.15 K) [m/s] | speed of sound [2] [m/s] | Structure (SMILES) |
| --- | --- | --- | --- | --- | --- | --- |
| 1386.4 ± 1.6 | 1364.2 ± 1.6 | 1342 ± 1.6 | 1321.2 ± 1.6 | 1300.4 ± 1.6 | – | CCOCCCN [3-ethoxy-1-propanamine] |
| – | – | – | – | – | 1447.3 ± 1.3 | O [water] + CCOCCCN |
| 1447.3 ± 1.3 | – | – | – | – | – | O [water] |
